Among the data in patent publication US7781441B2, “(3,4-dihydro-quinazolin-2-yl)-(2-aryloxy-ethyl)-amine” (Hoffmann-La Roche Inc., priority 2005, dated 2010) are Ki values, retold here.

The target of this test is T1, recombinant human 5-HT5A receptor (Homo sapiens, UniProt P47898).
T1 construct: expressed in transfected cells; host or cells: HEK-EBNA (Human Embryonic Kidney-EBNA) cells, transient cDNA expression; membranes
Briefly: [3H]LSD radioligand binding assay. Particulars: [3H]LSD (approximately 1 nM); membranes from transiently expressed 5-HT5A receptors in HEK-EBNA cells; Ki by Cheng-Prussoff equation. Here is the method:
Compounds of the invention were tested for 5-HT5A activity in the following assay.
A [^3H]LSD radioligand binding assay was used to determine the affinity of the compounds for the recombinant human 5-HT5A receptor, in membranes from transiently (cDNA) expressed 5-HT5A receptors in Human Embryonic Kidney-EBNA (HEK-EBNA) cells. Assay buffer consisted of Tris (50 mM) buffer containing 1 mM EGTA, 10 mM MgCl2 (pH 7.4) and 10 μM pargyline. The binding assay was carried out in 96-well-plates in the presence of [^3H]LSD (approximately 1 nM), approximately 2 μg/well of membrane protein, and 0.5 mg of Ysi-poly-l-lysine SPA beads in a final volume of 200 μl of buffer. Non-specific binding was defined using methiothepin 2 μM. Compounds were tested at 10 concentrations. All assays were conducted in duplicate and repeated at least two times. Assay plates were incubated for 120 min at room temperature before centrifugation. Bound ligand was determined using a Packard Topcount scintillation counter. IC50 values were calculated using a non-linear curve fitting program and Ki values calated using the Cheng-Prussoff equation.

T1 sequence (P47898 whole entry): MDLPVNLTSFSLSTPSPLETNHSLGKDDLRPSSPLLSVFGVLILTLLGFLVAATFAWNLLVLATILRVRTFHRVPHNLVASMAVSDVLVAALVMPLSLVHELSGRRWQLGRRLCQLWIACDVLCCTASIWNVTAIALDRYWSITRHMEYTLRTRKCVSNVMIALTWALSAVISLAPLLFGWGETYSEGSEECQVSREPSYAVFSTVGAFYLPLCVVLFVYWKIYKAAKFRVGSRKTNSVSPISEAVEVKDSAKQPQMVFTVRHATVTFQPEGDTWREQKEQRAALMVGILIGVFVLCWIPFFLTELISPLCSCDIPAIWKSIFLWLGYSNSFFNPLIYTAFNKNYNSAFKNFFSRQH

With `COc1ccccc1OCCNC1=Nc2ccccc2CN1` [Example 1, (3,4-Dihydro-quinazolin-2-yl)-[2-(2-methoxy-phenoxy)-ethyl]-amine], the Ki was 0.0075 µM.

Consider `Fc1ccc2c(c1)CNC(NCCOc1ccccc1)=N2` [Example 2, (6-Fluoro-3,4-dihydro-quinazolin-2-yl)-(2-phenoxy-ethyl)-amine], for which the Ki amounted to 0.018 µM.

With `Clc1ccccc1OCCNC1=Nc2ccccc2CN1` [Example 3, [2-(2-Chloro-phenoxy)-ethyl]-(3,4-dihydro-quinazolin-2-yl)-amine], the Ki was 0.019 µM. With `Cc1ccc2c(c1)CNC(NCCOc1ccccc1)=N2` [Example 4, (6-Methyl-3,4-dihydro-quinazolin-2-yl)-(2-phenoxy-ethyl)-amine] the figure was 0.025 µM; with `c1ccc(OCCNC2=Nc3ccccc3CN2)cc1` [Example 5, (3,4-Dihydro-quinazolin-2-yl)-(2-phenoxy-ethyl)-amine hydroiodide], 0.042 µM. With `Fc1ccccc1OCCNC1=Nc2ccccc2CN1` [Example 6, (3,4-Dihydro-quinazolin-2-yl)-[2-(2-fluoro-phenoxy)-ethyl]-amine] the figure was 0.034 µM; with `Fc1cccc2c1CNC(NCCOc1ccccc1)=N2` [Example 7, (5-Fluoro-3,4-dihydro-quinazolin-2-yl)-(2-phenoxy-ethyl)-amine hydroiodide], 0.03 µM.

As for `CCOc1ccccc1OCCNC1=Nc2ccccc2CN1` [Example 8, (3,4-Dihydro-quinazolin-2-yl)-[2-(2-ethoxy-phenoxy)-ethyl]-amine], the Ki is 0.038 µM. With `Clc1cccc2c1CNC(NCCOc1ccccc1)=N2` [Example 9, (5-Chloro-3,4-dihydro-quinazolin-2-yl)-(2-phenoxy-ethyl)-amine hydroiodide] the figure was 0.053 µM. With `Cc1cccc2c1CNC(NCCOc1ccccc1)=N2` [Example 10, (5-Methyl-3,4-dihydro-quinazolin-2-yl)-(2-phenoxy-ethyl)-amine hydroiodide] the figure was 0.046 µM; with `CC1NC(NCCOc2ccccc2)=Nc2ccccc21` (stereo not shown) [Example 11, (4-Methyl-3,4-dihydro-quinazolin-2-yl)-(2-phenoxy-ethyl)-amine hydroiodide], 0.058 µM; with `Cc1cccc(OCCNC2=Nc3ccccc3CN2)c1` [Example 12, (3,4-Dihydro-quinazolin-2-yl)-(2-m-tolyloxy-ethyl)-amine], 0.064 µM. Under `FC(F)(F)Oc1ccccc1OCCNC1=Nc2ccccc2CN1` [Example 13, (3,4-Dihydro-quinazolin-2-yl)-[2-(2-trifluoromethoxy-phenoxy)-ethyl]-amine] stands 0.072 µM; under `Clc1ccc2c(c1Cl)CNC(NCCOc1ccccc1)=N2` [Example 14, (5,6-Dichloro-3,4-dihydro-quinazolin-2-yl)-(2-phenoxy-ethyl)-amine hydroiodide], 0.076 µM. For `COc1ccc2c(c1)CNC(NCCOc1ccccc1)=N2` [Example 15, (6-Methoxy-3,4-dihydro-quinazolin-2-yl)-(2-phenoxy-ethyl)-amine], the Ki turned out to be 0.076 µM. Consider `COc1cccc(OCCNC2=Nc3ccccc3CN2)c1` [Example 16, (3,4-Dihydro-quinazolin-2-yl)-[2-(3-methoxy-phenoxy)-ethyl]-amine], for which the Ki came out at 0.096 µM. For the compound `Fc1cccc(OCCNC2=Nc3ccccc3CN2)c1` [Example 17, (3,4-Dihydro-quinazolin-2-yl)-[2-(3-fluoro-phenoxy)-ethyl]-amine], the Ki came to 0.096 µM.

In the case of `Clc1cccc(OCCNC2=Nc3ccccc3CN2)c1` [Example 18, [2-(3-Chloro-phenoxy)-ethyl]-(3,4-dihydro-quinazolin-2-yl)-amine], the Ki was 0.1 µM. Under `COc1ccccc1OCCNC1=Nc2ccc(F)cc2CN1` [Example 29, (6-Fluoro-3,4-dihydro-quinazolin-2-yl)-[2-(2-methoxy-phenoxy)-ethyl]-amine] stands 0.0199 µM; under `C/C=C/c1ccccc1OCCNC1=Nc2ccccc2CN1` [Example 34, (3,4-Dihydro-quinazolin-2-yl)-[2-(2-propenyl-phenoxy)-ethyl]-amine], 0.0587 µM.

Turning to `CSc1ccccc1OCCNC1=Nc2ccccc2CN1` [Example 35, (3,4-Dihydro-quinazolin-2-yl)-[2-(2-methylsulfanyl-phenoxy)-ethyl]-amine], the Ki worked out at 0.0357 µM. Turning to `Brc1ccccc1OCCNC1=Nc2ccccc2CN1` [Example 37, [2-(2-Bromo-phenoxy)-ethyl]-(3,4-dihydro-quinazolin-2-yl)-amine], the Ki stood at 0.0222 µM. Under `N#Cc1ccccc1OCCNC1=Nc2ccccc2CN1` [Example 38, 2-[2-(3,4-Dihydro-quinazolin-2-ylamino)-ethoxy]-benzonitrile] stands 0.054 µM; under `c1ccc(COc2ccccc2OCCNC2=Nc3ccccc3CN2)cc1` [Example 39, [2-(2-Benzyloxy-phenoxy)-ethyl]-(3,4-dihydro-quinazolin-2-yl)-amine], 0.0867 µM; under `COc1cccc(OC)c1OCCNC1=Nc2ccccc2CN1` [Example 41, (3,4-Dihydro-quinazolin-2-yl)-[2-(2,6-dimethoxy-phenoxy)-ethyl]-amine], 0.0903 µM. Under `COc1ccc(C)cc1OCCNC1=Nc2ccccc2CN1` [Example 44, (3,4-Dihydro-quinazolin-2-yl)-[2-(2-methoxy-5-methyl-phenoxy)-ethyl]-amine] stands 0.0825 µM; under `COc1cccc(F)c1OCCNC1=Nc2ccccc2CN1` [Example 45, (3,4-Dihydro-quinazolin-2-yl)-[2-(2-fluoro-6-methoxy-phenoxy)-ethyl]-amine], 0.0429 µM; under `Fc1ccc(Br)c(OCCNC2=Nc3ccccc3CN2)c1` [Example 46, [2-(2-Bromo-5-fluoro-phenoxy)-ethyl]-(3,4-dihydro-quinazolin-2-yl)-amine], 0.089 µM. Consider `COc1ccc2c(c1)CNC(NCCOc1ccccc1Cl)=N2` [Example 56, [2-(2-Chloro-phenoxy)-ethyl]-(6-methoxy-3,4-dihydro-quinazolin-2-yl)-amine], for which the Ki came out at 0.0831 µM. With `Cc1ccc2c(c1)CNC(NCCOc1ccccc1Cl)=N2` [Example 58, [2-(2-Chloro-phenoxy)-ethyl]-(6-methyl-3,4-dihydro-quinazolin-2-yl)-amine] the figure was 0.0538 µM; with `Fc1cccc2c1CNC(NCCOc1ccccc1Cl)=N2` [Example 59, [2-(2-Chloro-phenoxy)-ethyl]-(5-fluoro-3,4-dihydro-quinazolin-2-yl)-amine], 0.0484 µM. On to `COc1ccc2c(c1)CNC(NCCOc1ccccc1OC)=N2` [Example 62, (6-Methoxy-3,4-dihydro-quinazolin-2-yl)-[2-(2-methoxy-phenoxy)-ethyl]-amine], for which the Ki was 0.0536 µM. Consider `COc1ccccc1OCCNC1=Nc2ccc(C)cc2CN1` [Example 64, [2-(2-Methoxy-phenoxy)-ethyl]-(6-methyl-3,4-dihydro-quinazolin-2-yl)-amine], for which the Ki came to 0.0197 µM.

In the case of `COc1ccccc1OCCNC1=Nc2cccc(F)c2CN1` [Example 67, (5-Fluoro-3,4-dihydro-quinazolin-2-yl)-[2-(2-methoxy-phenoxy)-ethyl]-amine], the Ki is 0.0236 µM.
